Earlier results, collected in US20110165150A1, “Isolated organ perfusion combination therapy of cancer” (Merck Patent GmbH, priority 2006, published 2011).

System: integrin receptors αvβ3, αvβ1, αvβ6, αvβ8, αIIbβ3
Settings: especially αvβ3 and/or αvβ5

SMILES: CC(C)[C@H]1C(=O)N[C@@H](CCCN=C(N)N)C(=O)NCC(=O)N[C@@H](CC(=O)O)C(=O)N[C@H](Cc2ccccc2)C(=O)N1C [Cilengitide, cyclo-(Arg-Gly-Asp-DPhe-NMeVal)]
- blocking the integrin receptors: efficacious in blocking
